In the supplement of paper PMC10307832:

Compound: Nc1ccn([C@@H]2O[C@H](CO)[C@@H](O)C2(F)F)c(=O)n1 [Gemcitabine]
Assay: relative viability (nuclei count vs DMSO), 5 days (fraction); higher = more cells survive
Summary of the method: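 A plate was accepted only when its control CV was below 25% and the cells had doubled at least once. Viability is defined from nuclear counts as treated wells divided by vehicle wells, with the median taken across plates. That median covers lung cancer cell lines grown in 1536-well plates, dosed by pinning at five √10-spaced library-drug concentrations, and counted in MetaXpress from 4× Hoechst images after 5 days.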

| Cell Line | relative viability (0.001 µM) | relative viability (0.003162 µM) | relative viability (0.01 µM) | relative viability (0.03162 µM) | relative viability (0.1 µM) |
| --- | --- | --- | --- | --- | --- |
| 201T | 0.939 | 0.958 | 0.988 | 0.697 | 0.482 |
| A549 | 1.03 | 0.894 | 0.0734 | 0.0244 | 0.0209 |
| A-427 | 0.96 | 0.867 | 0.584 | 0.293 | 0.143 |
| ABC-1 | 0.965 | 0.823 | 0.703 | 0.291 | 0.235 |
| BEN | 0.973 | 0.726 | 0.282 | 0.152 | 0.117 |
| CAL-12T | 1.04 | 0.935 | 0.643 | 0.206 | 0.14 |
| COR-L23 | 0.992 | 0.941 | 0.701 | 0.117 | 0.0953 |
| COR-L 105 | 0.947 | 0.934 | 0.572 | 0.269 | 0.234 |
| Calu-6 | 0.975 | 0.649 | 0.33 | 0.147 | 0.129 |
| ChaGo-K-1 | 1.07 | 0.871 | 0.538 | 0.265 | 0.219 |
| EBC-1 | 0.791 | 0.235 | 0.174 | 0.138 | 0.142 |
| EKVX | 0.943 | 0.766 | 0.461 | 0.201 | 0.139 |
| EMC-BAC-2 | 0.89 | 0.996 | 0.642 | 0.267 | 0.226 |
| EPLC-272H | 1.05 | 1.01 | 0.591 | 0.113 | 0.0839 |
| H3255 | 0.981 | 0.781 | 0.631 | 0.297 | 0.198 |
| HARA | 1.03 | 0.984 | 0.971 | 0.469 | 0.118 |
| HCC-15 | 1.04 | 1.06 | 0.941 | 0.468 | 0.108 |
| HCC-44 | 0.99 | 0.815 | 0.935 | 0.527 | 0.264 |
| HCC-78 | 0.849 | 0.595 | 0.436 | 0.255 | 0.237 |
| HCC-366 | 0.992 | 0.939 | 0.535 | 0.0641 | 0.0314 |
| HCC-827 | 1.05 | 0.928 | 0.783 | 0.51 | 0.252 |
| HOP-62 | 0.923 | 0.855 | 0.176 | 0.103 | 0.0838 |
| IA-LM | 0.963 | 0.88 | 0.74 | 0.108 | 0.0519 |
| LC-2-ad | 1.03 | 0.763 | 0.762 | 0.316 | 0.159 |
| LCLC-97TM1 | 0.909 | 0.455 | 0.139 | 0.0859 | 0.0792 |
| LCLC-103H | 0.933 | 1.07 | 1 | 0.769 | 0.376 |
| LK-2 | 0.997 | 0.915 | 0.708 | 0.255 | 0.187 |

| Cell Line | relative viability (0.001 µM) | relative viability (0.003162 µM) | relative viability (0.01 µM) | relative viability (0.03162 µM) | relative viability (0.1 µM) |
| --- | --- | --- | --- | --- | --- |
| LOU-NH91 | 0.982 | 0.788 | 0.585 | 0.338 | 0.301 |
| LU99A | 0.864 | 1.08 | 0.932 | 1.01 | 0.918 |
| LXF-289 | 1.01 | 0.977 | 0.826 | 0.206 | 0.123 |
| NCI-H23 | 0.898 | 0.299 | 0.144 | 0.146 | 0.139 |
| NCI-H322M | 0.813 | 0.375 | 0.295 | 0.281 | 0.304 |
| NCI-H358 | 0.972 | 0.415 | 0.179 | 0.154 | 0.157 |
| NCI-H441 | 0.993 | 0.63 | 0.292 | 0.13 | 0.139 |
| NCI-H460 | 1.03 | 0.963 | 0.774 | 0.0431 | 0.0112 |
| NCI-H520 | 1.05 | 0.942 | 0.43 | 0.22 | 0.165 |
| NCI-H522 | 1.12 | 0.812 | 0.418 | 0.42 | 0.388 |
| NCI-H596 | 1.32 | 0.929 | 0.564 | 0.31 | 0.283 |
| NCI-H647 | 0.786 | 0.202 | 0.0889 | 0.0675 | 0.0582 |
| NCI-H650 | 0.878 | 0.316 | 0.195 | 0.157 | 0.165 |
| NCI-H661 | 1.05 | 0.941 | 0.808 | 0.305 | 0.259 |
| NCI-H727 | 0.802 | 0.567 | 0.347 | 0.332 | 0.32 |
| NCI-H838 | 0.987 | 1.15 | 1.05 | 0.467 | 0.153 |
| NCI-H1299 | 0.998 | 1.05 | 1 | 1.02 | 1.03 |
| NCI-H1355 | 0.987 | 0.818 | 0.392 | 0.187 | 0.152 |
| NCI-H1395 | 0.779 | 0.594 | 0.422 | 0.365 | 0.364 |
| NCI-H1437 | 1.01 | 0.854 | 0.705 | 0.362 | 0.21 |
| NCI-H1563 | 0.998 | 0.983 | 0.866 | 0.538 | 0.49 |
| NCI-H1648 | 0.846 | 0.771 | 0.999 | 0.413 | 0.283 |
| NCI-H1650 | 1.04 | 0.572 | 0.271 | 0.154 | 0.163 |
| NCI-H1651 | 0.987 | 0.955 | 0.929 | 0.285 | 0.141 |
| NCI-H1666 | 0.965 | 1 | 0.909 | 0.61 | 0.412 |
| NCI-H1703 | 0.699 | 0.264 | 0.138 | 0.126 | 0.115 |
| NCI-H1734 | 0.984 | 0.856 | 0.263 | 0.121 | 0.125 |

| Cell Line | relative viability (0.001 µM) | relative viability (0.003162 µM) | relative viability (0.01 µM) | relative viability (0.03162 µM) | relative viability (0.1 µM) |
| --- | --- | --- | --- | --- | --- |
| NCI-H1755 | 0.97 | 1 | 0.943 | 0.633 | 0.305 |
| NCI-H1792 | 1.06 | 0.43 | 0.165 | 0.127 | 0.0999 |
| NCI-H1793 | 1.02 | 1.04 | 0.565 | 0.168 | 0.146 |
| NCI-H1915 | 0.981 | 1.03 | 0.98 | 0.865 | 0.475 |
| NCI-H1944 | 1 | 0.995 | 0.821 | 0.496 | 0.235 |
| NCI-H1975 | 0.984 | 1.1 | 0.648 | 0.216 | 0.174 |
| NCI-H1993 | 0.974 | 0.958 | 0.604 | 0.441 | 0.558 |
| NCI-H2009 | 1.01 | 0.746 | 0.24 | 0.167 | 0.114 |
| NCI-H2023 | 1.03 | 0.92 | 0.444 | 0.103 | 0.0642 |
| NCI-H2085 | 1.05 | 0.954 | 0.852 | 0.792 | 0.439 |
| NCI-H2087 | 1.04 | 0.852 | 0.349 | 0.132 | 0.118 |
| NCI-H2126 | 0.971 | 1 | 0.906 | 0.77 | 0.458 |
| NCI-H2170 | 0.99 | 0.999 | 0.86 | 0.498 | 0.158 |
| NCI-H2228 | 0.973 | 0.695 | 0.235 | 0.161 | 0.132 |
| NCI-H2342 | 0.922 | 0.972 | 0.777 | 0.438 | 0.305 |
| NCI-H2347 | 1 | 0.915 | 0.68 | 0.492 | 0.381 |
| NCI-H2405 | 0.995 | 0.66 | 0.533 | 0.268 | 0.211 |
| NCI-H3122 | 0.975 | 1.04 | 0.913 | 0.214 | 0.14 |
| PC-3 [JPC-3] | 1.1 | 0.779 | 0.771 | 0.36 | 0.373 |
| PC-14 | 0.97 | 0.407 | 0.151 | 0.0526 | 0.0522 |
| RERF-LC-KJ | 1.01 | 1 | 0.973 | 0.496 | 0.247 |
| SK-LU-1 | 1.01 | 0.479 | 0.243 | 0.191 | 0.228 |
| SK-MES-1 | 0.945 | 0.473 | 0.216 | 0.203 | 0.17 |
| SW 900 | 0.802 | 0.424 | 0.153 | 0.134 | 0.141 |
| SW 1573 | 0.911 | 0.736 | 0.239 | 0.101 | 0.0671 |
| UMC-11 | 1.04 | 0.992 | 0.974 | 0.869 | 0.375 |
